Source: patent publication US20040254162A1, “Oxazolidinone derivatives as antimicrobials” (priority 2001, published 2004)
≈ marks a conversion by molar mass, not a printed value.

Experiments:
VRE 6A (Ent. faecium 6A) = experiment: MIC, agar incorporation method; conditions: Enterococcus, VRE, read-out: MIC VRE 6A
[1] = system: Porphyromonas asaccharolytica; experiment: Agar dilution MIC, anaerobes; format: cell-based; conditions: Porphyromonas asaccharolytica; single isolate, anaerobic agar dilution; read-out: MIC Porphyromonas asaccharolytica
[2] = system: Peptostreptococcus prevotii; experiment: Agar dilution MIC, anaerobes; format: cell-based; conditions: Anaerococcus prevotii, single isolates, anaerobic agar dilution; read-out: MIC Peptostreptococcus prevotii
MRSE 879 = experiment: Broth MIC, MRSE 879; format: cell-based; conditions: Staphylococcus epidermidis; MRSE 879; read-out: broth MIC
[3] = system: Peptostreptococcus tetradius; experiment: Agar dilution MIC, anaerobes; format: cell-based; conditions: Anaerococcus tetradius, single isolates, anaerobic agar dilution; read-out: MIC Peptostreptococcus tetradius
Clostridium perfringens = experiment: microbe, parasite or virus in culture; format: cell-based; conditions: Clostridium perfringens, read-out: MIC Clostridium perfringens, single isolates, anaerobic agar dilution
Prevotella intermedia = experiment: Agar dilution MIC, anaerobes; format: cell-based; conditions: single isolates, anaerobic agar dilution
anaerobic bacteria = experiment: Agar dilution method for anaerobic bacteria, summary; format: cell-based
S. pneumoniae = experiment: Summary of in vitro activity (MIC); conditions: Streptococcus pneumoniae
[4] = system: MRSE 879 adherent bacteria; experiment: Sintered glass adherent bacteria model; conditions: MRSE 879, sintered glass adherent bacteria model
E. faecalis = experiment: Summary of in vitro activity (MIC); conditions: Enterococcus faecalis
[5] = read-out: Geometric Mean of in vitro activity (MIC)

`CC(=O)NC[C@H]1CN(c2ccc(N3CCOCC3)c(F)c2)C(=O)O1` [Linezolid] gave an MIC (VRE 6A (Ent. faecium 6A)) of 2 µg/mL (≈ 5.93 µM), an MIC [1] of 1 µg/mL (≈ 2.96 µM) and an MIC [2] of 0.5 µg/mL (≈ 1.48 µM). The MIC (MRSE 879) was 2 µg/mL (≈ 5.93 µM), the MIC [3] was 0.5 µg/mL (≈ 1.48 µM) and the MIC (Clostridium perfringens) was 2 µg/mL (≈ 5.93 µM). For the same compound, the MIC (Prevotella intermedia; Prevotella intermedia, read-out: MIC Prevotella intermedia) was 0.5 µg/mL (≈ 1.48 µM), the “MIC Prevotella intermedia” value (Prevotella intermedia) was 1 µg/mL (≈ 2.96 µM) and the MIC50 (anaerobic bacteria; 48 h) was 1 µg/mL (≈ 2.96 µM). The MIC90 (anaerobic bacteria; 48 h) was 4 µg/mL (≈ 11.9 µM), the “Geometric Mean” value (anaerobic bacteria; anaerobes) was 1.134 µg/mL and the “MIC Range” value (anaerobic bacteria; anaerobes) was 0.25 to 4 µg/mL. The MIC50 (S. pneumoniae) was 0.5 µg/mL (≈ 1.48 µM), the MIC90 (S. pneumoniae) was 2 µg/mL (≈ 5.93 µM) and the MIC (S. pneumoniae; [5]) was 0.6 µg/mL (≈ 1.78 µM). For the same compound, the “concentration which would kill adherent bacteria” value [4] was 32 µg/mL, the MIC50 (E. faecalis) was 4 µg/mL (≈ 11.9 µM) and the MIC90 (E. faecalis) was 16 µg/mL (≈ 47.4 µM). It also gave an MIC (E. faecalis; [5]) of 4 µg/mL (≈ 11.9 µM).
